According to patent US10449146B2, “Methods of treating parkinson's disease by administration of apomorphine to an oral mucosa” (Sunovion Pharmaceuticals Inc., priority 2015, dated 2019):
Like-named read-outs stand apart in the source and are kept apart here.

Assays:
[1] = Plasma apomorphine concentration in Parkinson's patients, minimum effective concentration; type: in vivo, human
Protocol: A range of doses was used. Over half of the patients needed only the lower two doses (Films J and K), and 80% used Film I, J, or K (FIG. 8; “apomorphine dose” in this Figure indicates the weight of apomorphine hydrochloride in the administered pharmaceutical unit dosage form). […] Eight patients had pharmacokinetic analyses; six of these eight patients have achieved “on” state. Mean plasma apomorphine concentration upon turning on was 2.64 ng/mL for the six patients. […] Responders had large, clinically meaningful UPDRS Part III changes (motor improvement) at all time-points while the non-responders had little motor improvement but not enough to convert from OFF to ON (FIG. 9B).

[2] = intravenous infusion, subjects having Parkinson's disease; cited from earlier work

Mean plasma apomorphine concentration upon turning on ([1]; six patients who achieved 'on' state, film to oral mucosa): 2.64 ng/mL
average plasma apomorphine concentration ([1]; two non-responders, all doses, each time point): < 2.64 ng/mL
SMILES: CN1CCc2cccc3c2[C@H]1Cc1ccc(O)c(O)c1-3 [apomorphine]
minimum effective concentration ([1]; administered to oral mucosa): about 2.64 ng/mL
minimum effective concentration [2]: 4.7 ng/mL
